Measurements as given in PubChem BioAssay AID1963983 (Molecular Pharmacology Branch, DTP, NCI, 2024).

System: 186277-243-T-J2-PDC multi-cell spheroid viability
Assay: Anticancer human tumor 186277-243-T-J2-PDC patient-derived colon adenocarcinoma cell line growth inhibition [PI3K]
Details: for IC50: curve of first compound; for viability, T/C: stronger effect = lower value
From the text: Combinatorial screen of targeted agents with the PI3K inhibitors inavolisib, alpelisib, duvelisib, and copanlisib in multi-cell type tumor spheroids
A high-throughput screen of multi-cell type tumor spheroids was designed to identify active combinations of targeted small molecules and PI3K pathway inhibitors. Complex spheroids include a stromal component modeled by human endothelial cells (HUVEC) and fibroblasts modeled by human mesenchymal stem cells (MSCs). The concentration ranges selected for each drug and investigational agent were based upon clinically achievable concentrations if the clinical Cmax of the agent was known.
Compounds. The drugs and investigational agents: inavolisib (NSC800729), alpelisib (NSC765974), duvelisib (NSC772469), copanlisib (NSC816437), ipatasertib (NSC767898), afuresertib (NSC778305), talazoparib (NSC767125), sapanisertib (NSC764658), selumetinib (NSC741078), tovorafenib (DAY101, NSC766906), vemurafenib (NSC761431), ravoxertinib (NSC781343), sotorasib (NSC818433), MRTX1133 (NSC 836407), abemaciclib (NSC 768073), palbociclib (NSC758247), venetoclax (NSC 766270), SY5609 (NSC837396), enzalutamide (NSC755605), and darolutamide (NSC825331), were obtained from the National Cancer Institute (NCI) Developmental Therapeutics Program Chemical Repository. The FDA-approved anticancer drug set is available from the NCI Developmental Therapeutics Program. […] The stock solutions were prepared in dimethyl sulfoxide (DMSO, Sigma-Aldrich, St. Louis, MO, cat. D2650) at 800-fold the tested concentration and stored at -70 degrees C prior to their use. All drugs and investigational agents were tested over a range starting from a high concentration at or near the clinical Cmax and decreasing in half-log increments. If the clinical Cmax for an agent had not been determined, the highest concentration tested was 10 microM.
Cell Culture. All cells were maintained in an incubator at 37 degrees C and 5% CO2 with 95% humidity. The PDC lines were cultured according to standard operating procedures established by the NCI PDMR (https://pdmr.cancer.gov/sops/default.htm). All PDCs were thawed and cultured in Matrigel-coated flasks prepared with a working solution of 1X Ham's F-12 nutrient mix, without supplementation (Invitrogen, Waltham, MA, cat. 11765054), 100 U/mL penicillin-streptomycin (Invitrogen, cat. 15140122), and 2.5% Matrigel (Corning Inc., Corning, NY, cat. 354248) for the first three passages. The 354836-022-R-J1-PDC, 475296-252-R-J1-PDC, and 997726-040-R-J2-PDC lines were cultured in 6A media, which includes advanced DMEM/F-12 (Thermo Fisher Scientific, cat. 12634028), 10 mM HEPES (Thermo Fisher Scientific, cat. 15630080), 1X GlutaMAX supplement (Thermo Fisher Scientific, cat. 35050061), 0.1 mg/mL primocin (InvivoGen, San Diego, CA, cat. ant-pm-2), 10% defined fetal bovine serum, heat inactivated (HyClone Laboratories Inc., Logan, UT, cat. SH30070.03HI), 50% L-WRN conditioned media (ATCC, cat. CRL-3276), 1.25 mM N-Acetyl-L-cysteine (Sigma-Aldrich, cat. A9165), 10 mM nicotinamide (Sigma-Aldrich, cat. N0636), 1X B-27 supplement (Thermo Fisher Scientific, cat. 17504044), 1X N-2 supplement (Thermo Fisher Scientific, cat. 17502048), and 10 microM Y-27632 dihydrochloride (Tocris Bioscience, Bristol, United Kingdom, cat. 1254). The 624824-186-R-J2-PDC line was cultured in 6C/Colon 1B media, which includes all 6A media components plus 50 ng/mL human EGF recombinant protein (Thermo Fisher Scientific, cat. PHG0311). […]

[1] = second compound 0.00316 µM, first compound 0.0316 µM
[2] = second compound 0.00316 µM, first compound 0.1 µM
[3] = second compound 0.00316 µM, first compound 0.316 µM
[4] = second compound 0.00316 µM, first compound 1 µM
[5] = second compound 0.01 µM, first compound 0.0316 µM
[6] = second compound 0.01 µM, first compound 0.1 µM
[7] = second compound 0.01 µM, first compound 0.316 µM
[8] = second compound 0.01 µM, first compound 1 µM
[9] = second compound 0.0316 µM, first compound 0.0316 µM
[10] = second compound 0.0316 µM, first compound 0.1 µM
[11] = second compound 0.0316 µM, first compound 0.316 µM
[12] = second compound 0.0316 µM, first compound 1 µM
[13] = second compound 0.1 µM, first compound 0.0316 µM
[14] = second compound 0.1 µM, first compound 0.1 µM
[15] = second compound 0.1 µM, first compound 0.316 µM
[16] = second compound 0.1 µM, first compound 1 µM
[17] = second compound 0.316 µM, first compound 0.0316 µM
[18] = second compound 0.316 µM, first compound 0.1 µM
[19] = second compound 0.316 µM, first compound 0.316 µM
[20] = second compound 0.316 µM, first compound 1 µM
[21] = second compound 1 µM, first compound 0.0316 µM
[22] = second compound 1 µM, first compound 0.1 µM
[23] = second compound 1 µM, first compound 0.316 µM
[24] = second compound 1 µM, first compound 1 µM
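Also: spheroids exposed to compounds for seven days before viability reading.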
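For viability, T/C in this document: 100% = DMSO vehicle control viability.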

In the case of `C=CC(=O)N1CCN(c2nc(=O)n(-c3c(C)ccnc3C(C)C)c3nc(-c4c(O)cccc4F)c(F)cc23)C(C)C1` (centres undefined) + COc1c(OCCCN2CCOCC2)ccc2c3n(c(=NC(=O)c4cnc(N)nc4)nc12)CCN3, the IC50 (second compound 0.00316 µM) is reported as greater than 10 µM, the IC50 (second compound 0.01 µM) is reported as greater than 10 µM and the IC50 (second compound 0.0316 µM) is reported as 1.87 µM. The IC50 (second compound 0.1 µM) was less than 0.0316 µM, the IC50 (second compound 0.316 µM) was less than 0.0316 µM and the IC50 (second compound 1 µM) was less than 0.0316 µM. The viability, T/C [1] was 102%, the viability, T/C [2] was 88.7% and the viability, T/C [3] was 88.1%. For the same compound, the viability, T/C [4] was 88.1%, the viability, T/C (second compound 0.00316 µM, first compound 3.16 µM) was 93.2% and the viability, T/C (second compound 0.00316 µM, first compound 10 µM) was 73%. For the same compound, the viability, T/C [5] was 93.1%, the viability, T/C [6] was 88.2% and the viability, T/C [7] was 94.4%. For the same compound, the viability, T/C [8] was 93.6%, the viability, T/C (second compound 0.01 µM, first compound 3.16 µM) was 87.8% and the viability, T/C (second compound 0.01 µM, first compound 10 µM) was 62.3%. The viability, T/C [9] was 59.7%, the viability, T/C [10] was 67.1% and the viability, T/C [11] was 57.5%. It also gave a viability, T/C [12] of 52.6%, a viability, T/C (second compound 0.0316 µM, first compound 3.16 µM) of 47.8% and a viability, T/C (second compound 0.0316 µM, first compound 10 µM) of 31.2%. It also gave a viability, T/C [13] of 18.3%, a viability, T/C [14] of 18.1% and a viability, T/C [15] of 14.9%. For the same compound, the viability, T/C [16] was 12.3%, the viability, T/C (second compound 0.1 µM, first compound 3.16 µM) was 11.1% and the viability, T/C (second compound 0.1 µM, first compound 10 µM) was 10.9%. It also gave a viability, T/C [17] of 6.24%, a viability, T/C [18] of 4.28% and a viability, T/C [19] of 3.7%. The viability, T/C [20] was 4.23%, the viability, T/C (second compound 0.316 µM, first compound 3.16 µM) was 7.04% and the viability, T/C (second compound 0.316 µM, first compound 10 µM) was 4.1%. The viability, T/C [21] was 1.93%, the viability, T/C [22] was 4.05% and the viability, T/C [23] was 1.66%. The viability, T/C [24] was 2.03%, the viability, T/C (second compound 1 µM, first compound 3.16 µM) was 2.92% and the viability, T/C (second compound 1 µM, first compound 10 µM) was 2.49%.
For `CCN1CCN(Cc2ccc(Nc3ncc(F)c(-c4cc(F)c5nc(C)n(C(C)C)c5c4)n3)nc2)CC1` + COc1c(OCCCN2CCOCC2)ccc2c3n(c(=NC(=O)c4cnc(N)nc4)nc12)CCN3, the IC50 (second compound 0.00316 µM) was greater than 1 µM, the IC50 (second compound 0.01 µM) was greater than 1 µM and the IC50 (second compound 0.0316 µM) was 0.234 µM. It also gave an IC50 (second compound 0.1 µM) of less than 0.00316 µM, an IC50 (second compound 0.316 µM) of less than 0.00316 µM and an IC50 (second compound 1 µM) of less than 0.00316 µM. The viability, T/C (second compound 0.00316 µM, first compound 0.00316 µM) was 95.3%, the viability, T/C (second compound 0.00316 µM, first compound 0.01 µM) was 111% and the viability, T/C [1] was 94.3%. For the same compound, the viability, T/C [2] was 134%, the viability, T/C [3] was 151% and the viability, T/C [4] was 108%. The viability, T/C (second compound 0.01 µM, first compound 0.00316 µM) was 101%, the viability, T/C (second compound 0.01 µM, first compound 0.01 µM) was 107% and the viability, T/C [5] was 113%. It also gave a viability, T/C [6] of 112%, a viability, T/C [7] of 123% and a viability, T/C [8] of 69.4%. It also gave a viability, T/C (second compound 0.0316 µM, first compound 0.00316 µM) of 68.4%, a viability, T/C (second compound 0.0316 µM, first compound 0.01 µM) of 59.7% and a viability, T/C [9] of 57.8%. It also gave a viability, T/C [10] of 52.4%, a viability, T/C [11] of 54.8% and a viability, T/C [12] of 33.2%. It also gave a viability, T/C (second compound 0.1 µM, first compound 0.00316 µM) of 19.9%, a viability, T/C (second compound 0.1 µM, first compound 0.01 µM) of 17.7% and a viability, T/C [13] of 16%. The viability, T/C [14] was 13%, the viability, T/C [15] was 14.5% and the viability, T/C [16] was 12.8%. The viability, T/C (second compound 0.316 µM, first compound 0.00316 µM) was 6.67%, the viability, T/C (second compound 0.316 µM, first compound 0.01 µM) was 7.13% and the viability, T/C [17] was 4.73%. It also gave a viability, T/C [18] of 3.28%, a viability, T/C [19] of 6.05% and a viability, T/C [20] of 7.03%. The viability, T/C (second compound 1 µM, first compound 0.00316 µM) was 2.68%, the viability, T/C (second compound 1 µM, first compound 0.01 µM) was 3% and the viability, T/C [21] was 2.82%. The viability, T/C [22] was 2.7%, the viability, T/C [23] was 7% and the viability, T/C [24] was 4.26%.
